Reference: patent publication US20240216249A1, “COLLAGEN ACTIVATOR, AND PREPARATION METHOD AND APPLICATION THEREOF” (Hangzhou NUPTEC Rising Bioproducts Incorporation, Ltd., priority 2022, published 2024)

Key:
[1] = tested on: blood vessels of embryonated eggs; assay: safety test on blood vessels of embryonated eggs; conditions: positive comparative group, 0.05 M SDS, 5 eggs
collagen III = assay: cell experiments, expression of collagen III; format: cell-based
collagen XVII = assay: cell experiments, expression of collagen XVII; format: cell-based
collagen I = assay: cell experiments, expression of collagen I; format: cell-based

**Q.** What does the source list for `CCCCCCCCCCCCOS(=O)(=O)[O-].[Na+]` [SDS, sodium dodecyl sulfate]?
**A.** irritation judgement [1]: non-irritants; bleeding of blood vessels of embryonated eggs ([1]; 30 min): appear the bleeding phenomenon

**Q.** With `CC1(C)[C@@H](O[C@H]2O[C@H](C(=O)[O-])[C@@H](O)[C@H](O)[C@H]2O[C@@H]2O[C@H](C(=O)[O-])[C@@H](O)[C@H](O)[C@H]2O)CC[C@]2(C)[C@H]3C(=O)C=C4[C@@H]5C[C@@](C)(C(=O)O)CC[C@]5(C)CC[C@@]4(C)[C@]3(C)CC[C@@H]12.[K+].[K+]` [dipotassium glycyrrhizinate] as the compound, how does the “content having a promoting effect on the expression of collagen III” value (collagen III) read?
**A.** 0.001%-0.25

**Q.** And the “optimal content (highest expression) for collagen III” value (collagen III)?
**A.** 0.1%

**Q.** And the “content having a promoting effect on the expression of collagen XVII” value (collagen XVII)?
**A.** 0.001%-0.01

**Q.** What about the “optimal content (highest expression) for collagen XVII” value (collagen XVII) of the same compound?
**A.** 0.01%

**Q.** And the “content having a promoting effect on the expression of collagen I” value (collagen I)?
**A.** 0.001%-0.1

**Q.** What about the “optimal content (highest expression) for collagen I” value (collagen I) of the same compound?
**A.** 0.01%
